Results published in US20230416261A1, “ETHANEDIAMINE-HETEROCYCLE DERIVATIVES AS INHIBITORS OF PROTEIN ARGININE METHYLTRANSFERASES” (Board of Regents, The University of Texas System, priority 2021, published 2023).

Key:
PRMT1 = PRMT1 (Homo sapiens, UniProt Q99873); assay: PRMT1 RKO Cellular Target Engagement Assay (In-Cell Western, asymmetric di-methyl arginine); format: cell-based; conditions: RKO cells, 48 hr compound incubation; read-out: RKO IC50 (PRMT-1 Target Engagement)
Outline: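 RKO cells (1,000/well) received 1:3 serially diluted compound for 48 h at 37 °C, then were fixed, permeabilised and immunostained for asymmetric di-methyl arginine by In-Cell Western. The 800 nm antibody signal was normalised to CellTag 700 nm; IC50 from four-parameter logistic fit.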

PATC53 cells = assay: PATC53 Long Term Phenotypic Assay (14 days, crystal violet viability); format: cell-based; conditions: 336 h
Outline: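 Cells seeded at 250 per well, allowed 24 h to settle, then treated with 1:3 serial dilutions of compound for 14 days at 37 °C, 5% CO2. Viability measured by crystal violet staining, solubilised in 10% HOAc, absorbance 590 nm; IC50 from four-parameter logistic fit.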

[1] = tested on: PANC-1 (pancreatic ductal adenocarcinoma) xenograft; assay: Anti-tumor effects in PANC-1 mouse xenograft model; format: in vivo; conditions: BID, 28 days, C.B-17 SCID mice
Method: The effect of the compounds of Examples 1 and 2 on tumor growth was assessed in a PANC-1 (pancreatic ductal adenocarcinoma) mouse xenograft model. Female C.B -Igh-I^b/IcrTac-Prkdc^scid (C.B-17 SCID) mice were injected subcutaneously in the right flank with a suspension of […] cells (5 million cells with 50% Matrigel (Corning #356231) in sterile Dulbecco's phosphate buffered saline (DPBS, Life Technologies #14190-144). After implantation, tumor volume (TV) was measured weekly and mice bearing tumors with volumes ˜200 mm^3 were randomized into treatment groups of 8 mice each. Mice were dosed by oral gavage, twice daily for 28 days with either vehicle or 1 and 2 at the doses reported in Table 6 and Table 7 respectively. The doses were scaled to the body weights (BW) of individual animals at a dosing volume of 5 mL/Kg. Throughout the duration of study tumor growth was assessed by caliper measurement and treatment response was determined by percent tumor growth inhibition (% TGI; calculated as TGI %=(Ci−Ti)/(Ci−C0)*100%; Ci and Ti are the mean tumor volumes of the vehicle and treatment groups on the measurement day, respectively; C0 is the mean tumor volume of the vehicle group on day 0 (i.e. the day before treatment started). Mouse body weight was measured bi-weekly and reported as percentage of BW change from day 0 (calculated as Body Weight Change %=(BWi−BW0)/BW0*100%; BWi and BW0 are body weight of an individual mouse on measurement day i and on day 0, respectively). Statistical significance was calculated by repeated-measures two-way ANOVA with multiple comparisons and Tukey correction using GraphPad Prism 8.0.

Sequence of PRMT1 (Q99873 whole entry): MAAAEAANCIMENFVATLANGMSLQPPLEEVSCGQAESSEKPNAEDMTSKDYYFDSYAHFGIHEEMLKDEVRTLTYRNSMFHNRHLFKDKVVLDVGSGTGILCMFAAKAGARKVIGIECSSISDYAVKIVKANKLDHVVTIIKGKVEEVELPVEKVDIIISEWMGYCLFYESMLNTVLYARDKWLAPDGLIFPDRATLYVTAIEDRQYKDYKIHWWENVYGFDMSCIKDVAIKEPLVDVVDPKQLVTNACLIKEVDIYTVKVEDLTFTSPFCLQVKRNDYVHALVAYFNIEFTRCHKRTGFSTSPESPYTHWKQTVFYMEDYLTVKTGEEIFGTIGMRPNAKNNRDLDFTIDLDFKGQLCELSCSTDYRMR

| Compound | IC50 (PRMT1) [nM] | IC50 (PATC53 cells) [nM] | Tumor Growth Inhibition % (TGI %; day 28) ([1]; 150 mg/Kg PO) [%] | Tumor Growth Inhibition % (TGI %; day 28) ([1]; 225 mg/Kg PO) [%] |
| --- | --- | --- | --- | --- |
| CNCCN(C)Cc1nn2c(c1C1CCC(COC)(COC)CC1)CN(C(=O)C1CCC1)CC2 [Example 1, (3-(4,4-Bis(methoxymethyl)cyclohexyl)-2-((methyl(2-(methylamino)ethyl)amino)methyl)-6,7-dihydropyrazolo[1,5-a]pyrazin-5(4H)-yl)(cyclobutyl)methanone] | 138 | 45 | 49 | 68 |
| COCC1(COC)CCC(c2c(CN(C)CCN)nn3c2CN(C(=O)C(C)(C)C)CC3)CC1 [Example 2, 1-(2-(((2-aminoethyl)(methyl)amino)methyl)-3-(4,4-bis(methoxymethyl)cyclohexyl)-6,7-dihydropyrazolo[1,5-a]pyrazin-5(4H)-yl)-2,2-dimethylpropan-1-one] | 311 | 152 | 48 | 70 |
